Data set [1] addresses Tyrosine-protein kinase Fyn (Homo sapiens, UniProt P06241). The experiment in a line: biochemical. Type of data set: cell-based, Insect cells.
Another data set concerns the target Cytochrome P450 2C9 (Homo sapiens, UniProt P11712). As to conditions: bti-tn-5b1-4. Further: in other assays of this panel Not Active means under 50% inhibition at 10 µM.
The target in data set [2] is Sigma non-opioid intracellular receptor 1 (Homo sapiens, UniProt Q99720). The experiment in a line: DRUGMATRIX: Sigma1 radioligand binding (ligand: [3H] Haloperidol). Type of data set: cell membranes, Jurkat, Membrane. As to conditions: jurkat; Not Active = under 50% inhibition at 10 µM.
Data set [3] has as its target T1, 5-hydroxytryptamine receptor 2C (Homo sapiens, UniProt P28335).
T1 sequence (P28335 whole entry): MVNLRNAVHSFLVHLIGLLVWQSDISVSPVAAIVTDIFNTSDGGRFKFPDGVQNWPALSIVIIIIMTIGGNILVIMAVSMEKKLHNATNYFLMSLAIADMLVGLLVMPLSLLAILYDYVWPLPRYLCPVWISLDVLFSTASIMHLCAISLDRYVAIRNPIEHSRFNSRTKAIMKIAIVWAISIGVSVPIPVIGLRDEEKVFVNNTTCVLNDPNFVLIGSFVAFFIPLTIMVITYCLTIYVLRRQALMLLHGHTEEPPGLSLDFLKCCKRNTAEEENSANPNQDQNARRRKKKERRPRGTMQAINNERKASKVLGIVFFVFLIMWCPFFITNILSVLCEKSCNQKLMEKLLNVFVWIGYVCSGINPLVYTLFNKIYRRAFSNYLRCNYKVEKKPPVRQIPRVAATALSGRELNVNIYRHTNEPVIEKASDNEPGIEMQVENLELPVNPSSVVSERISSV
Description: DRUGMATRIX: Serotonin (5-Hydroxytryptamine) 5-HT2C radioligand binding (ligand: [3H] Mesulergine). The format is cell membranes, CHO-K1, Membrane. As to conditions: cho-k1; Not Active = under 50% inhibition at 10 µM.

The target in data set [4] is T2, Polyunsaturated fatty acid lipoxygenase ALOX15 (Oryctolagus cuniculus, UniProt P12530).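 Further: inhibition of 15-lipoxygenase enzyme activity measured with linoleic acid as the substrate; in other assays of this panel Not Active means under 50% inhibition at 10 µM.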
T2 sequence (P12530 whole entry): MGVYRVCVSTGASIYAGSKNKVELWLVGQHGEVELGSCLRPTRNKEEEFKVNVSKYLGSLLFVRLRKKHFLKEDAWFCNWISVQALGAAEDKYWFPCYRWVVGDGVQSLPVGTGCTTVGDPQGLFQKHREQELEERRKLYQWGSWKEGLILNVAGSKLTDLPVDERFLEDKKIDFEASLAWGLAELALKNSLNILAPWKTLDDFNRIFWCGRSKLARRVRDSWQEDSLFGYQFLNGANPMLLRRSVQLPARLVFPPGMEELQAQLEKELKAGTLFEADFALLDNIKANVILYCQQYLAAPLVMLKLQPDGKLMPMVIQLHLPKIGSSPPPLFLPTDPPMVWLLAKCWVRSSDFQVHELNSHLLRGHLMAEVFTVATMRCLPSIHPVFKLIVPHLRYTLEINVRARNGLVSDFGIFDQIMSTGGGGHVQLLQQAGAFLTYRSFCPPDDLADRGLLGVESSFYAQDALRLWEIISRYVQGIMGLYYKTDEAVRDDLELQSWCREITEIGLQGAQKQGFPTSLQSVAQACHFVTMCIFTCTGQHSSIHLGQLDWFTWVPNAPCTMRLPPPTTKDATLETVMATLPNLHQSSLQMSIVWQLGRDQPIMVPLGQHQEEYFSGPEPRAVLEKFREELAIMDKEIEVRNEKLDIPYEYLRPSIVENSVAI
Description: biochemical. Type of data set: tissue-based, Reticulocytes.

The next data set deals with D(3) dopamine receptor (Homo sapiens, UniProt P35462). The experiment in a line: DRUGMATRIX: Dopamine D3 radioligand binding (ligand: [3H] Spiperone). Type of data set: cell membranes, CHO, Membrane. The following applies: cho.
Data set [5] concerns the target T3, Cholecystokinin receptor type A (Homo sapiens, UniProt P32238). Further: in other assays of this panel Not Active means under 50% inhibition at 10 µM.
T3 sequence (P32238 whole entry): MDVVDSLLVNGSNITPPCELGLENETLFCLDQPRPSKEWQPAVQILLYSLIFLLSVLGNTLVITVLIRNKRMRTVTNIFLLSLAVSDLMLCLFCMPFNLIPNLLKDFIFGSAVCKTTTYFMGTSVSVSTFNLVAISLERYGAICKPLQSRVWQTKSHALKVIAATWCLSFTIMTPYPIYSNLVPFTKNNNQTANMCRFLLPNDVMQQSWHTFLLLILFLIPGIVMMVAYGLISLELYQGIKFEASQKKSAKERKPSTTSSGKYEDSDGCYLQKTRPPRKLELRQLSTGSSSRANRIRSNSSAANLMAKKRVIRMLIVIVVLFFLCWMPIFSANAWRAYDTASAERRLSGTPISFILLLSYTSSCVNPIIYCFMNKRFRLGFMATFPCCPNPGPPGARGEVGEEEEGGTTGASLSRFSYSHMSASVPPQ
The format is cell membranes, Membrane. As to conditions: 1321-n1.

Another data set concerns the target T4, Glucocorticoid receptor (Homo sapiens, UniProt P04150). Further: in other assays of this panel Not Active means under 50% inhibition at 10 µM.
T4 sequence (P04150 whole entry): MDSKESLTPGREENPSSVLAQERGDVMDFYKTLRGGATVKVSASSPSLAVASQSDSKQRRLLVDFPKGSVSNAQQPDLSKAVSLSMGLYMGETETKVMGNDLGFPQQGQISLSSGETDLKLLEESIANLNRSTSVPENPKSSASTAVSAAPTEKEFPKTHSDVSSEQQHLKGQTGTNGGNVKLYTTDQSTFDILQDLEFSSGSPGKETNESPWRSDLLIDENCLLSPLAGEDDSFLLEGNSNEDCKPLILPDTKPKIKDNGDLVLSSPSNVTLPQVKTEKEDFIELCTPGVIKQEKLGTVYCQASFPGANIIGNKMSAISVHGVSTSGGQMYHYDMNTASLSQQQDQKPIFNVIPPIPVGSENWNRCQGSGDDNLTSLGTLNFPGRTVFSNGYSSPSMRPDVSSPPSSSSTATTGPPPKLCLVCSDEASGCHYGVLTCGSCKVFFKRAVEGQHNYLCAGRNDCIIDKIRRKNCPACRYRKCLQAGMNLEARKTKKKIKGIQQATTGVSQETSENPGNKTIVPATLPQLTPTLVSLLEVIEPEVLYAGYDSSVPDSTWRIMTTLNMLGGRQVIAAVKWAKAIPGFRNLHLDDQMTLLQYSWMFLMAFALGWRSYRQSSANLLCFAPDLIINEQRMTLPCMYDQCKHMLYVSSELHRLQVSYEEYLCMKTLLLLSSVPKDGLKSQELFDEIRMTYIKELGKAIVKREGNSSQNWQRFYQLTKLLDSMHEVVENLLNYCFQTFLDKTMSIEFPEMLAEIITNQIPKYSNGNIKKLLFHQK
As to conditions: hela s3.

The target in a further data set is Histamine H2 receptor (Homo sapiens, UniProt P25021). The format is cell membranes, CHO-K1, Membrane. As to conditions: cho-k1. Further: in other assays of this panel Not Active means under 50% inhibition at 10 µM.

The source of these data is ChEMBL document CHEMBL1909046, “DrugMatrix in vitro pharmacology data”.

Each structure is given as a SMILES string.

Tyrosine-protein kinase Fyn, sequence (P06241 whole entry): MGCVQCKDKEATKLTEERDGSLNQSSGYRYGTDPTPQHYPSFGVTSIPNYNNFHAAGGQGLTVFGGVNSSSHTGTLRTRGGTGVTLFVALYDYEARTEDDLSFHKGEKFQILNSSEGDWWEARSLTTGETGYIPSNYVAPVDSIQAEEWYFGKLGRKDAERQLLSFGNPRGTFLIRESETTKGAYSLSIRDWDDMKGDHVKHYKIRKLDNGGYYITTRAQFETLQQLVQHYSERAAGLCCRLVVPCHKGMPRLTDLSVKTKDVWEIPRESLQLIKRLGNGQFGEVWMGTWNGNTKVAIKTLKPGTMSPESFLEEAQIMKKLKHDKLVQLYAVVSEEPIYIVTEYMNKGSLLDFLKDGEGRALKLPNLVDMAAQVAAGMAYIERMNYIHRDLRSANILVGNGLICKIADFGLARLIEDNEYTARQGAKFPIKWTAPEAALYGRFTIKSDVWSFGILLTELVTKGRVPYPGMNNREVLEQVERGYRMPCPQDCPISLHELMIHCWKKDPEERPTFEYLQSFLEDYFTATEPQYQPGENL
D(3) dopamine receptor, sequence (P35462 whole entry): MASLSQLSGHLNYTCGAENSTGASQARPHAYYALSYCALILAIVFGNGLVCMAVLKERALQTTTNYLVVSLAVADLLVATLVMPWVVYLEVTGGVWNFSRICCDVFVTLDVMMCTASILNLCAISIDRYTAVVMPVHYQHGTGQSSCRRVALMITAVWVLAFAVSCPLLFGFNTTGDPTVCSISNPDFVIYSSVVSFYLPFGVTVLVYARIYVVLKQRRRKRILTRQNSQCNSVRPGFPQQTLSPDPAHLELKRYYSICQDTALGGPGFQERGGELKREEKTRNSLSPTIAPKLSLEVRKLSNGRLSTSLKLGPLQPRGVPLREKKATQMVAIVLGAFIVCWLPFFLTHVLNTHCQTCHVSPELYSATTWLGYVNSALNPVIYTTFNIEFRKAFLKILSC
Histamine H2 receptor, sequence (P25021 whole entry): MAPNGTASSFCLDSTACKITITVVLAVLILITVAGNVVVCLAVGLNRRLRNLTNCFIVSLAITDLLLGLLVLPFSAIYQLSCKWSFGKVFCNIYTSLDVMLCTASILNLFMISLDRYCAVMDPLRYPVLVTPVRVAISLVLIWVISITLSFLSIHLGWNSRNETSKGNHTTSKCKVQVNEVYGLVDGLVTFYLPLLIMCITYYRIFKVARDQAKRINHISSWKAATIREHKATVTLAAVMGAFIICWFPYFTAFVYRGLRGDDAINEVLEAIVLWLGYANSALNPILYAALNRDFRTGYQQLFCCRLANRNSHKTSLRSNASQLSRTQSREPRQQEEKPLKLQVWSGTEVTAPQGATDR
Cytochrome P450 2C9, sequence (P11712 whole entry): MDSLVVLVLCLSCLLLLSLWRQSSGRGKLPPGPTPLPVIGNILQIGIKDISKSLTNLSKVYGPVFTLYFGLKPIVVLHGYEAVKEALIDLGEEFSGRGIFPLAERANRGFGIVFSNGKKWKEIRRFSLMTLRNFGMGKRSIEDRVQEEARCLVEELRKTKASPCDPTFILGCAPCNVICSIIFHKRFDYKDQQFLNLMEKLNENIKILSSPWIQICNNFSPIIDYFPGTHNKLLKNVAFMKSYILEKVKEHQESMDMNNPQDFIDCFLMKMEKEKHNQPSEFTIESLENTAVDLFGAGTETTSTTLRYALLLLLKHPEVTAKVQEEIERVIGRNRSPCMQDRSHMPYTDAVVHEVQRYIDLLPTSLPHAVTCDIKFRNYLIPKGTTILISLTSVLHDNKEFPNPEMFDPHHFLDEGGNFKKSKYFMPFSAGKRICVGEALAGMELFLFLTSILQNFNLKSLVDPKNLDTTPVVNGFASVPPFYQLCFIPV
Sigma non-opioid intracellular receptor 1, sequence (Q99720 whole entry): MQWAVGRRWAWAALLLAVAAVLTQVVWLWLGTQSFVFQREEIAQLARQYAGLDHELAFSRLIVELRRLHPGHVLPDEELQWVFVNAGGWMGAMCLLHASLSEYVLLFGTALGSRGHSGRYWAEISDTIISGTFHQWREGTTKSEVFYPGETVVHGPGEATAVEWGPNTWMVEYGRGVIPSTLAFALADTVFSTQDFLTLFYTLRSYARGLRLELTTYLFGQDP

On to `CN1C(C(=O)Nc2ccccn2)=C(O)c2sccc2S1(=O)=O` [TENOXICAM], for which the IC50 entry (in [1] (insect cells); against Cytochrome P450 2C9; in [2]; in [3]; in [4] (reticulocytes); at D(3) dopamine receptor) was “Not Active” each time. The IC50 result (in data set [5]; on Glucocorticoid receptor; against Histamine H2 receptor) was “Not Active” in each case. For the same compound, the Ki entry on Cytochrome P450 2C9 was “Not Active”.
`O=C1CCC(N2C(=O)c3ccccc3C2=O)C(=O)N1` (stereo not given) [THALIDOMIDE]: the IC50 entry (in [1] (insect cells); against Cytochrome P450 2C9; in [2]; in data set [3]; in [4] (reticulocytes); on D(3) dopamine receptor) was “Not Active” throughout. Moreover, the IC50 result (in data set [5]; against Glucocorticoid receptor; against Histamine H2 receptor) was “Not Active” throughout. Besides, the Ki result on Cytochrome P450 2C9 is given as “Not Active”.
For the compound `Cc1cccc(Nc2ccncc2S(=O)(=O)NC(=O)NC(C)C)c1` [TORSEMIDE], the IC50 entry (in data set [1] (insect cells); against Cytochrome P450 2C9; in [2]; in data set [3]; in data set [4] (reticulocytes); at D(3) dopamine receptor) was “Not Active” throughout. Also, the concentration for half-maximal inhibition (IC50) result (in data set [5]; on Glucocorticoid receptor; against Histamine H2 receptor) was “Not Active” throughout. The Ki result on Cytochrome P450 2C9 is on record as “Not Active”.
On to `CC(C)C[C@H](NC(=O)[C@@H](O)[C@H](N)Cc1ccccc1)C(=O)O` [UBENIMEX], for which the half-maximal inhibitory concentration (IC50) result (in data set [1] (insect cells); at Cytochrome P450 2C9; in [2]; in data set [3]; in data set [4] (reticulocytes); on D(3) dopamine receptor) was “Not Active” in each case. Also, the IC50 result (in data set [5]; against Glucocorticoid receptor; against Histamine H2 receptor) was “Not Active” in each case. In addition, the Ki entry on Cytochrome P450 2C9 is “Not Active”.
Regarding `Cc1onc(-c2ccccc2)c1-c1ccc(S(N)(=O)=O)cc1` [VALDECOXIB], the IC50 result (in data set [1] (insect cells); at Cytochrome P450 2C9; in data set [2]; in data set [3]; in data set [4] (reticulocytes); at D(3) dopamine receptor) was “Not Active” in each case. The IC50 result (in data set [5]; against Glucocorticoid receptor; against Histamine H2 receptor) was “Not Active” in each case. In addition, on Cytochrome P450 2C9, the Ki entry is listed as “Not Active”.
Regarding `CC[C@]1(O)C[C@@H]2CN(CCc3c([nH]c4ccccc34)[C@@](C(=O)OC)(c3cc4c(cc3OC)N(C)[C@H]3[C@@](O)(C(=O)OC)[C@H](OC(C)=O)[C@]5(CC)C=CCN6CC[C@]43[C@@H]65)C2)C1` [VINBLASTINE], the IC50 (in general, the point on the concentration scale where inhibition reaches its midpoint) in data set [1] (insect cells) is “Not Active”; against Cytochrome P450 2C9 it was “Not Active”; in data set [2], “Not Active”; in data set [3], “Not Active”; in data set [4] (read-out: IC50), 5.04 µM; at D(3) dopamine receptor, “Not Active”. The IC50 entry (in data set [5]; against Glucocorticoid receptor; on Histamine H2 receptor) was “Not Active” throughout. The Ki result on Cytochrome P450 2C9 is given as “Not Active”.
Consider `C[C@@H](N)[C@H]1CC[C@H](C(=O)Nc2ccncc2)CC1` [Y-27632], for which the IC50 entry (in data set [1] (insect cells); on Cytochrome P450 2C9; in data set [2]; in data set [3]; in [4] (reticulocytes); on D(3) dopamine receptor) was “Not Active” in each case. For the same compound, the IC50 result (in data set [5]; at Glucocorticoid receptor; against Histamine H2 receptor) was “Not Active” in each case. In addition, at Cytochrome P450 2C9, the Ki entry was “Not Active”.
As for `[Cl-].[Cl-].[Zn+2]` [ZINC CHLORIDE], the IC50 is 1.88 µM in data set [1] (read-out: IC50); “Not Active” on Cytochrome P450 2C9; “Not Active” in [2]; “Not Active” in data set [3]; “Not Active” in data set [4] (reticulocytes); “Not Active” at D(3) dopamine receptor. For the same compound, the IC50 entry (in data set [5]; against Glucocorticoid receptor; against Histamine H2 receptor) was “Not Active” each time. In addition, the Ki result at Cytochrome P450 2C9 is recorded as “Not Active”.
